Source: PMC6142817, “New Urea Derivatives Are Effective Anti-senescence Compounds Acting Most Likely via a Cytokinin-Independent Mechanism” (Frontiers in Plant Science, 2018)
Where “and” joins values, the source holds several entries; their conditions need not be identical. Identical values can stand only once. Like-named read-outs stand apart in the source and are kept apart here.

Tests used:
[1] = test system: detached wheat leaves (membrane lipid peroxidation); test: TBARS content (lipid peroxidation) in leaves from WLSA; format: cell-based, Triticum aestivum; settings: 5 days in the dark, DMSO control = 100%
Experimental: Four leaf segments of combined weight of 100 mg from WLSA (5 days in the dark) were used for the determination of TBARS. Each sample was done in five repetitions (5 × 100 mg). The peroxidation of leaf membrane lipids was determined as described by Kováčik et al. ([2006]), with minor modifications—wheat leaves were extracted with 80% methanol and the trichloroacetic acid content was decreased to 0.1%.

[2] = test system: excised wheat leaves (chlorophyll degradation in the dark); test: Wheat leaf senescence assay (WLSA); format: cell-based, Triticum aestivum cv. Hereward; settings: for Chlorophyll content (% of the fresh control): 5 days in the dark, DMSO control = 0; for chlorophyll remaining, % of the initial chlorophyll: 21 days after leaf detachment, dark; for IC50: Triticum aestivum, 120 h
Experimental: (§1) Tobacco callus, Amaranthus and Wheat leaf senescence assay (WLSA) were performed as described by Holub et al. ([1998]) including the number of repetitions in each assay. An exception to the published protocols was that the tobacco callus assay was performed in 6-well microtiter plates (with each well containing 3 ml of Murashige Skoog medium into which 0.1 g of callus was added). Each compound was tested at least twice in each assay and in a wider concentration range to obtain concentration-dependent activity curves. IC50 means compound concentration at which chlorophyll degradation is inhibited by 50% and EC50 means half the maximal effective concentration.
(§2) Amaranthus assay evaluates the induction of betacyanin synthesis in Amaranthus (Amaranthus caudatus var. atropurpurea) cotyledons, which is induced by cytokinins (Bamberger and Mayer, [1960]). The WLSA evaluates the ability of compounds to retard chlorophyll degradation in excised wheat leaves that are kept in the dark. The wheat leaf segments (Triticum aestivum cv. Hereward) were used in all other experiments requiring wheat. Arabidopsis (Arabidopsis thaliana) leaf senescence assay was performed with detached leaves from 30-day-old plants, which were grown in soil in phytotron under standard conditions (Rivero et al., [2014]). Four leaves of a combined weight of 60 mg were placed in a six-well plate and stored in the dark for 12 days at 22°C. The leaves (except the fresh control leaves) floated on water solutions of tested compounds. Fresh control leaves were leaves detached from a plant and immediately used for chlorophyll determination. The duration of the senescence assay of Arabidopsis leaves was prolonged to highlight the difference in chlorophyll content between a negative control and treatments. Arabidopsis leaves were losing chlorophyll more slowly than wheat leaves. Chlorophyll extraction and spectrophotometric determination of its content was done according to Holub et al. ([1998]).

[3] = test system: Arabidopsis thaliana roots; test: Arabidopsis root elongation assay; format: in vivo, Arabidopsis thaliana (wild-type Col-0); settings: 0.1 μM, 14 days; for Arabidopsis root growth (length): control 3.5 cm
Experimental: (§3) Seeds of Triticum aestivum were surface sterilized by washing with 96% ethanol (10 min) and sown in a hydroponic growing system (Araponics, Liege, Belgium) using Hoagland's solution supplemented with either 0.1 μM TDZ, 0.1 μM ASES or 0.01% DMSO (solvent control). The plants were grown in a growth chamber at 25°C with a 16/8 h light period at 130 μM m^−2s^−1. The root lengths of at least 50 plants were measured 2 weeks after the plants had been sown. Seeds of Arabidopsis thaliana (wild-type Col-0) were surface sterilized by the same procedure as seeds of wheat and sown on vertical plates using half-strength Murashige-Skoog medium (supplemented with 0.1% sucrose and 6 g/L phytagel) containing either 0.1 μM TDZ, 0.1 μM ASES or 0.01% DMSO (solvent control). After vernalization (4 days in the dark, 4°C), the plates were transferred into a growth chamber (22°C, 16/8 light/dark, 130 μM m^−2s^−1). Root elongation was scored 2 weeks after the transfer, with measurements from at least 40 plants for each treatment. The whole experiment was repeated twice.

Triticum aestivum roots = test: Wheat root elongation assay; format: in vivo; settings: 0.1 μM, 14-day-old plants; control 10.4 cm
Experimental: as §3

[4] = test system: Amaranthus caudatus cotyledon-hypocotyl explants; test: Amaranthus bioassay (betacyanin synthesis); format: cell-based, Amaranthus caudatus var. atropurpurea; settings: for EC50: Amaranthus caudatus
Experimental: as §1, §2

[5] = test system: photosystem II complexes in wheat leaves from WLSA; test: Two-dimensional clear-native/SDS electrophoresis of membrane complexes; set-up: species or system Triticum aestivum; settings: 10 μM, 5 days in the dark
Experimental: Leaves from WLSA were frozen at −80°C and then dried overnight by lyophilization at 5°C. Dried material was homogenized by bead-beating (2 × 10 s) with 2.5 mm metal beads (Mini-Beadbeater-16, BioSpec, USA). The resulting powder was mixed with a thylakoid buffer, pH 6.5, containing 25 mM MES, 10 mM MgCl2, 10 mM CaCl2, and 25% glycerol and bead-beaten (4 × 10 s). The obtained cell extract was centrifuged, after which the insoluble fraction was transferred into a new tube and solubilized with 2% dodecyl-β-maltoside for 15 min on ice. The solution was centrifuged at 30,000 × g for 10 min to remove any non-solubilized cell debris and the obtained solubilized membrane proteins were separated by electrophoresis using a 4 to 12% polyacrylamide clear native gel (Wittig et al., [2007]). Individual components of protein complexes were resolved by incubating the gel strip from the first electrophoresis in 2% SDS and 1% dithiothreitol for 30 min at room temperature, after which the proteins were separated in a second dimension by SDS-electrophoresis using a denaturing 12 to 20% polyacrylamide gel containing 7 M urea (Dobáková et al., [2009]). Proteins were stained with Coomassie Brilliant Blue, and individual protein components were identified by comparing the protein pattern with previously published results (Pagliano et al., [2012]).

ARR5:GUS reporter gene = test: Arabidopsis ARR5:GUS reporter gene assay; format: in vivo, Arabidopsis thaliana
Experimental: Transgenic Arabidopsis plants (Arabidopsis thaliana (L.) Heynh. accession Wassilewskija) harboring the GUS reporter gene (gene for β-glucuronidase) fused to 1.6 kb of the ARR5 (PARR5−GUS) gene promoter (D'Agostino et al., [2000]) were kindly provided by professor Thomas Schmülling. The assay was performed according to Romanov et al. ([2002]). β-Glucuronidase (GUS) activity was quantitatively determined by measuring fluorescence of 4-methylumbelliferyl (MU) on a Synergy H4 hybrid reader (Biotek, Winooski, VT) with excitation and emission wavelengths of 365 and 445 nm, respectively. GUS specific activity was determined as nmol MU × mg protein^−1 × h^−1. This was calculated by dividing the relative fluorescence units (obtained per hour) by protein content of the same sample. Protein extraction was done as described by Romanov et al. ([2002]) but its content was determined using a bicinchoninic acid reagent (Smith et al., [1985]). Finally we expressed the GUS activity in samples as a relative percentage, the activity of 1 μM BA being set as 100% activation. The concentration-dependent activity curves and EC50 values (for TDZ, tZ, BA, TD-iP, and TD-tZ) were constructed using Scion image program.

| SMILES | TBARS content (relative %) ([1]; 0.01 μM) | TBARS content (relative %) ([1]; 0.1 μM) | TBARS content (relative %) ([1]; 1 μM) | TBARS content (relative %) ([1]; 10 μM) | TBARS content (relative %) ([1]; 100 μM, fresh control = 0) | Chlorophyll content (% of the fresh control) ([2]; 0.01 μM) | Chlorophyll content (% of the fresh control) ([2]; 0.1 μM) | Chlorophyll content (% of the fresh control) ([2]; 1 μM) | Chlorophyll content (% of the fresh control) ([2]; 10 μM) | chlorophyll remaining, % of the initial chlorophyll ([2]; 10 μM) | Chlorophyll content (% of the fresh control) ([2]; 100 μM) | Arabidopsis root growth (length) [3] [cm] | wheat root length (Triticum aestivum roots) [cm] | level of PSII-LHCII supercomplexes [5] | further results |
| --- | --- | --- | --- | --- | --- | --- | --- | --- | --- | --- | --- | --- | --- | --- | --- |
| O=C(Nc1ccccc1)Nc1cnns1 [TDZ, 1-phenyl-3-(1,2,3-thiadiazol-5-yl)urea, reference compound] | 101 (±5) % | 80 (±3) % | 71 (±6) % | 68 (±8) % | 55 (±10) % | 8 (±2) % | 18 (±5) % | 34 (±7) % | 50 (±11) % | approximately 15% | 91 (±2) % | 1.7 | 3.2 | completely lost | IC50 ([2]; read-out: Senescence bioassay (IC50, μM)): 13 µM; reduction of Arabidopsis root growth compared to the control [3]: 50%; activity in Amaranthus assay, fold exceeding all other cytokinins [4]: at least 100 fold; EC50 ([4]; read-out: Amaranthus bioassay (EC50, μM)): 0.004 µM; EC50 (ARR5:GUS reporter gene; Arabidopsis thaliana, read-out: ARR5:GUS activation EC50): 4 nM |
| COCCNC(=O)Nc1cnns1 [ASES, 1-(2-methoxy-ethyl)-3-1,2,3-thiadiazol-5-yl-urea] | 105 (±5) % | 91 (±10) % | 47 (±4) % | 31 (±5) % | 24 (±6) % and 24% | 8 (±4) % | 25 (±7) % | 51 (±8) % | 79 (±8) % | ~50% | 98 (±7) % | 4.2 | 11.0 | even higher level of PSII-LHCII supercomplexes than we observed for fresh control | IC50 ([2]; detached wheat leaves in the dark, 5 days, concentration at which chlorophyll degradation is inhibited by 50%, read-out: Senescence bioassay (IC50)): 0.95 µM; times more effective than TDZ in WLSA ([2]; ratio of IC50 values): approximately 13 times; fold lower potency than BA in inducing betacyanin [4]: ~5 fold; fold lower potency than TDZ in inducing betacyanin [4]: approximately 1,000 fold; EC50 ([4]; betacyanin synthesis, N.A. = not active, read-out: Amaranthus bioassay (EC50)): 4 µM; membrane complexes / level of dimeric PSII in senescent leaves [5]: very similar to those of the fresh control, including high levels of dimeric PSII; ARR5:GUS activity, % of BA activity (ARR5:GUS reporter gene; compound at 10 μM, 1 μM BA = 100%): 55–65% |
